According to US11986532B2 (Arvinas Operations, Inc., priority 2021, dated 2024):
Read-outs that look alike come from different tables or passages of the source.

Target: T1, BCL6 (Homo sapiens, UniProt P41182)
T1 construct: endogenous in cells; host or cells: T47D breast cancer epithelial cells
Experiment: Immunofluorescence protocol for high content imaging of BCL6 (degradation) in T47D cells, 3 days compound treatment
Format: cell-based
Conditions: for DC50: read-out: Mean DC50 (nM)* category; for Dmax: read-out: Mean Dmax (%)** category
In short: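 For degradation, compound series (3-fold, 11 points, top 0.1 or 1 μM final) were added to adherent T47D cultures for 3 days. BCL6 immunostaining used a rabbit antibody at 1:300 and an Alexa-488 secondary, with imaging at 10× magnification.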

[1] = T47D cells, 3 days compound treatment

DC50 [1] [nM] | Dmax [1] [%] | Compound | Dmax (T47D) [%] | DC50 [nM]
< 10 | < 50 | CNC(=O)COc1cc2cc(Nc3nc(N4CCC(F)(CN5CCC6(CCN(c7ccc8c(c7)CN(C7CCC(=O)NC7=O)C8=O)C6)C5)CC4)ncc3Cl)ccc2n(C(C)C)c1=O (stereo not shown) [Compound 17, 2-{[6-({5-chloro-2-[4-({7-[2-(2,6-dioxopiperidin-3-yl)-1-oxo-2,3-dihydro-1H-isoindol-5-yl]-2,7-diazaspiro[4.4]nonan-2-yl}methyl)-4-fluoropiperidin-1-yl]pyrimidin-4-yl}amino)-2-oxo-1-(propan-2-yl)-1,2-dihydroquinolin-3-yl]oxy}-N-methylacetamide] | – | –
< 10 | 50 to 70 | CNC(=O)COc1cc2cc(Nc3nc(N4CCN(CC5CCN(c6ccc7c(c6)CN(C6CCC(=O)NC6=O)C7=O)CC5)CC4)ncc3Cl)ccc2n(C)c1=O (stereo not shown) [Compound 67, 2-{[6-({5-chloro-2-[4-({1-[2-(2,6-dioxopiperidin-3-yl)-1-oxo-2,3-dihydro-1H-isoindol-5-yl]piperidin-4-yl}methyl)piperazin-1-yl]pyrimidin-4-yl}amino)-1-methyl-2-oxo-1,2-dihydroquinolin-3-yl]oxy}-N-methylacetamide] | – | –
< 10 | 50 to 70 | CNC(=O)COc1cc2cc(Nc3nc(N4CCC(OC5CN([C@H]6CC[C@@H](c7ccc8c(c7)CN(C7CCC(=O)NC7=O)C8=O)CC6)C5)CC4)ncc3Cl)ccc2n(C(C)C)c1=O (single isomer, unassigned) [Compound 166, 2-[[6-[[5-chloro-2-[4-[1-[4-[2-(2,6-dioxo-3-piperidyl)-1-oxo-isoindolin-5-yl]cyclohexyl]azetidin-3-yl]oxy-1-piperidyl]pyrimidin-4-yl]amino]-1-isopropyl-2-oxo-3-quinolyl]oxy]-N-methyl-acetamide] | – | –

The next lines start with the compound.

Compound | DC50 [1] [nM] | Dmax [1] [%] | Dmax (T47D) [%] | DC50 [nM]
CNC(=O)COc1cc2cc(Nc3cc(N4CCC(F)(CN5CCC6(CC5)CN(c5ccc7c(c5)CN(C5CCC(=O)NC5=O)C7=O)C6(C)C)CC4)ncc3Cl)ccc2n(C(C)C)c1=O (stereo not shown) [Compound 240, 2-{[6-({5-chloro-2-[4-({2-[2-(2,6-dioxopiperidin-3-yl)-1-oxo-2,3-dihydro-1H-isoindol-5-yl]-1,1-dimethyl-2,7-diazaspiro[3.5]nonan-7-yl}methyl)-4-fluoropiperidin-1-yl]pyridin-4-yl}amino)-2-oxo-1-(propan-2-yl)-1,2-dihydroquinolin-3-yl]oxy}-N-methylacetamide] | – | – | ≥ 70 | < 10
CNC(=O)COc1cc2cc(Nc3nc(N4CCC(O[C@H]5C[C@H](N6CC7(CCN(c8ccc9c(c8)CN(C8CCC(=O)NC8=O)C9=O)C7)C6)C5)CC4)ncc3Cl)ccc2n(C(C)C)c1=O (stereo partly shown) [Compound 351, 2-({6-[(5-chloro-2-{4-[(1r,3r)-3-{6-[2-(2,6-dioxopiperidin-3-yl)-1-oxo-2,3-dihydro-1H-isoindol-5-yl]-2,6-diazaspiro [3.4]octan-2-yl}cyclobutoxy]piperidin-1-yl}pyrimidin-4-yl)amino]-2-oxo-1-(propan-2-yl)-1,2-dihydroquinolin-3-yl}oxy)-N-methylacetamide] | – | – | ≥ 70 | < 10
CNC(=O)COc1cc2cc(Nc3nc(N4CCC(O[C@H]5C[C@H](N6CCN(c7ccc8c(n7)C(C)N(C7CCC(=O)NC7=O)C8=O)[C@H](C)C6)C5)CC4)ncc3Cl)ccc2n(C(C)C)c1=O (stereo in doubt) [Compound 203, 2-({6-[(5-chloro-2-{4-[(1r,3r)-3-[(3R)-4-[6-(2,6-dioxopiperidin-3-yl)-7-methyl-5-oxo-5H,6H, 7H-pyrrolo[3,4-b]pyridin-2-yl]-3-methylpiperazin-1-yl]cyclobutoxy]piperidin-1-yl}pyrimidin-4-yl)amino]-2-oxo-1-(propan-2-yl)-1,2-dihydroquinolin-3-yl}oxy)-N-methylacetamide] | < 10 | ≥ 70 | – | –
CNC(=O)COc1cc2cc(Nc3nc(N4CCC(O[C@H]5C[C@H](N6CCN(c7cc8c(cc7Cl)C(=O)N([C@H]7CCC(=O)NC7=O)C8)[C@H](C)C6)C5)CC4)ncc3Cl)ccc2n(C(C)C)c1=O [Compound 269, 2-({6-[(5-chloro-2-{4-[(1r,3r)-3-[(3R)-4-{6-chloro-2-[(3S)-2,6-dioxopiperidin-3-yl]-1-oxo-2,3-dihydro-1H-isoindol-5-yl}-3-methylpiperazin-1-yl]cyclobutoxy]piperidin-1-yl}pyrimidin-4-yl)amino]-2-oxo-1-(propan-2-yl)-1,2-dihydroquinolin-3-yl}oxy)-N-methylacetamide] | – | – | ≥ 70 | < 10
CNC(=O)COc1cc2cc(Nc3nc(N4CCN(CC5CC6(CCN(c7cc8c(cc7F)C(=O)N(C7CCC(=O)NC7=O)C8)CC6)C5)CC4)ncc3Cl)ccc2n(C(C)C)c1=O (stereo not shown) [Compound 318, 2-{[6-({5-chloro-2-[4-({7-[2-(2,6-dioxopiperidin-3-yl)-6-fluoro-1-oxo-2,3-dihydro-1H-isoindol-5-yl]-7-azaspiro[3.5]nonan-2-yl}methyl)piperazin-1-yl]pyrimidin-4-yl}amino)-2-oxo-1-(propan-2-yl)-1,2-dihydroquinolin-3-yl]oxy}-N-methylacetamide] | – | – | 50 to 70 | < 10
